Values of other authors, collected in patent US12552830B2, “Steroidal compound derivatives as therapeutic agents” (priority 2020, dated 2026).
Entries after “also recorded” stand apart in the source; their conditions may differ.

What was measured:
[1] = tested on: transactivator of transcription (Tat)
[2] = tested on: HIV; conditions: latent CD4+T cells, in vitro
[3] = tested on: human umbilical endothelial cell (HUVEC)

| Molecule | inhibition of Tat [1] | viral reactivation of HIV [2] | IC50 ([3]; HUVECs, read-out: IC50, selective anti-proliferative activity of HUVECs) | selectivity for HUVECs over other cell lines ([3]; over NHDF, KB3-1, K562 and Neuro2A cells) |
| --- | --- | --- | --- | --- |
| CN(C)[C@H]1C[C@@]23CC[C@@]4(O2)C(=CC[C@]2(C)C(c5ccc6ccncc6c5)=CCC24)C=C3[C@@H](O)[C@@H]1O (stereo partly shown) [dCA, didehydro-cortistatin A] | most potent inhibitor of transactivator of transcription (Tat) | prevents viral reactivation of HIV in vitro; also recorded: prevents viral reactivation in latent CD4+T cells in vitro | – | – |
| cortistatin A | – | – | 1.8 nM | 3000 fold |
